Source: ChEMBL document CHEMBL1201862, “PubChem BioAssay data set” (2004)
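The compound was tested at five concentrations on cells cultured in 96-well plates, with a 48-hour exposure period. Here, GI50 denotes the concentration required for 50% inhibition of growth.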 Activity calls are given as the source filed them. Rule as the data show it: active = GI50 up to about 1.1 µM and inactive = higher.

Columns and labels:
Assay in all cases: growth of human tumour cells (NCI), 48 h
CCRF-CEM = test system: CCRF-CEM
UACC-62 = test system: UACC-62
OVCAR-5 = test system: OVCAR-5
HCT-116 = test system: HCT-116
SF-539 = test system: SF-539
786-0 = test system: 786-0
DMS-273 = test system: DMS-273
KM12 = test system: KM12
OVCAR-4 = test system: OVCAR-4
A498 = test system: A498
HOP-62 = test system: HOP-62
HT-29 = test system: HT-29
M19-MEL = test system: M19-MEL
MOLT-4 = test system: MOLT-4
UO-31 = test system: UO-31
DLD-1 = test system: DLD-1
TK-10 = test system: TK-10
SNB-78 = test system: SNB-78
KM-20L2 = test system: KM-20L2
SK-MEL-2 = test system: SK-MEL-2
HCC 2998 = test system: HCC 2998
U-251 = test system: U-251
LXFL 529 = test system: LXFL 529
IGROV-1 = test system: IGROV-1
NCI-H522 = test system: NCI-H522
SF-295 = test system: SF-295
NCI-H460 = test system: NCI-H460
HOP-92 = test system: HOP-92
SN12C = test system: SN12C
A549 = test system: A549
RXF 631 = test system: RXF 631
EKVX = test system: EKVX
DMS-114 = test system: DMS-114
SK-MEL-28 = test system: SK-MEL-28
UACC-257 = test system: UACC-257
COLO 205 = test system: COLO 205
SNB-19 = test system: SNB-19
RXF 393 = test system: RXF 393
ACHN = test system: ACHN
SW-620 = test system: SW-620
OVCAR-3 = test system: OVCAR-3
SF-268 = test system: SF-268
K562 = test system: K562
SK-MEL-5 = test system: SK-MEL-5
OVCAR-8 = test system: OVCAR-8
HCT-15 = test system: HCT-15
SNB-75 = test system: SNB-75
HOP-18 = test system: HOP-18
NCI-H23 = test system: NCI-H23
CAKI-1 = test system: CAKI-1
RPMI-8226 = test system: RPMI-8226
LOX IMVI = test system: LOX IMVI
M14 = test system: M14
NCI-H226 = test system: NCI-H226
Malme-3M = test system: Malme-3M

Structure (SMILES): COc1ccc(/C=C2\CCC(C)(CN(C)C)C2=O)cc1OC (stereo not given)
- GI50 (CCRF-CEM): > 100 µM (inactive)
- GI50 (UACC-62): > 100 µM (inactive)
- GI50 (OVCAR-5): > 100 µM (inactive)
- GI50 (HCT-116): > 100 µM (inactive)
- GI50 (SF-539): > 100 µM (inactive)
- GI50 (786-0): > 100 µM (inactive)
- GI50 (DMS-273): > 100 µM (inactive)
- GI50 (KM12): > 100 µM (inactive)
- GI50 (OVCAR-4): > 100 µM (inactive)
- GI50 (A498): > 100 µM (inactive)
- GI50 (HOP-62): > 100 µM (inactive)
- GI50 (HT-29): > 100 µM (inactive)
- GI50 (M19-MEL): > 100 µM (inactive)
- GI50 (MOLT-4): > 100 µM (inactive)
- GI50 (UO-31): > 100 µM (inactive)
- GI50 (DLD-1): > 100 µM (inactive)
- GI50 (TK-10): > 100 µM (inactive)
- GI50 (SNB-78): > 100 µM (inactive)
- GI50 (KM-20L2): > 100 µM (inactive)
- GI50 (SK-MEL-2): > 100 µM (inactive)
- GI50 (HCC 2998): > 100 µM (inactive)
- GI50 (U-251): > 100 µM (inactive)
- GI50 (LXFL 529): > 100 µM (inactive)
- GI50 (IGROV-1): > 100 µM (inactive)
- GI50 (NCI-H522): > 100 µM (inactive)
- GI50 (SF-295): > 100 µM (inactive)
- GI50 (NCI-H460): > 100 µM (inactive)
- GI50 (HOP-92): > 100 µM (inactive)
- GI50 (SN12C): > 100 µM (inactive)
- GI50 (A549): > 100 µM (inactive)
- GI50 (RXF 631): > 100 µM (inactive)
- GI50 (EKVX): 32.8 µM (inactive)
- GI50 (DMS-114): > 100 µM (inactive)
- GI50 (SK-MEL-28): > 100 µM (inactive)
- GI50 (UACC-257): > 100 µM (inactive)
- GI50 (COLO 205): > 100 µM (inactive)
- GI50 (SNB-19): > 100 µM (inactive)
- GI50 (RXF 393): > 100 µM (inactive)
- GI50 (ACHN): > 100 µM (inactive)
- GI50 (SW-620): > 100 µM (inactive)
- GI50 (OVCAR-3): > 100 µM (inactive)
- GI50 (SF-268): > 100 µM (inactive)
- GI50 (K562): > 100 µM (inactive)
- GI50 (SK-MEL-5): > 100 µM (inactive)
- GI50 (OVCAR-8): > 100 µM (inactive)
- GI50 (HCT-15): > 100 µM
- GI50 (SNB-75): > 100 µM (inactive)
- GI50 (HOP-18): > 100 µM (inactive)
- GI50 (NCI-H23): > 100 µM (inactive)
- GI50 (CAKI-1): > 100 µM (inactive)
- GI50 (RPMI-8226): > 100 µM (inactive)
- GI50 (LOX IMVI): > 100 µM (inactive)
- GI50 (M14): > 100 µM (inactive)
- GI50 (NCI-H226): > 100 µM (inactive)
- GI50 (Malme-3M): > 100 µM (inactive)
